Experimental data reported in ChEMBL document CHEMBL4680196, “Structurally novel PI3Kδ/γ dual inhibitors characterized by a seven-membered spirocyclic spacer: The SARs investigation and PK evaluation” (Eur J Med Chem, 2020).

How the values were obtained:
[1] = target: PI3-kinase p110-delta/p85-alpha (Homo sapiens, UniProt O00329)
SU-DHL-6 [2] = test: Antiproliferative activity against human SU-DHL-6 cells assessed as reduction in cell viability measured after 72 hrs by MTT assay; type: functional
[3] = target: Phosphatidylinositol 4,5-bisphosphate 3-kinase catalytic subunit gamma isoform (Homo sapiens, UniProt P48736)
[4] = target: Phosphatidylinositol 3-kinase regulatory subunit beta/Phosphatidylinositol 4,5-bisphosphate 3-kinase catalytic subunit beta isoform (Homo sapiens, UniProt P42338)
Homo sapiens [5] = species: Homo sapiens
Homo sapiens [6] = species: Homo sapiens; remark: listed apart in the source
[7] = target: PI3-kinase p110-alpha/p85-alpha (Homo sapiens, UniProt P42336)
Homo sapiens [8] = species: Homo sapiens; remark: listed apart in the source
SU-DHL-6 [9] = test: Inhibition of PI3K in human SU-DHL-6 cells assessed as reduction in S6K1 phosphorylation at Thr389 residues after 2 hrs by Western blot analysis; type: cell-based
SU-DHL-6 [10] = test: Inhibition of PI3K in human SU-DHL-6 cells assessed as reduction in AKT phosphorylation at Ser473 residues after 2 hrs by Western blot analysis; type: cell-based
[11] = Elimination half life in Sprague-Dawley rat at 5 mg/kg, po by UHPLC-LC/MS analysis; type: ADME, organism-based; details: in vivo, read-out: beta t1/2 (converted)
[12] = Oral bioavailability in Sprague-Dawley rat at 5 mg/kg by UHPLC-LC/MS analysis; type: ADME, organism-based; details: in vivo
[13] = AUC (0 to t) in Sprague-Dawley rat at 5 mg/kg, po by UHPLC-LC/MS analysis; type: ADME, organism-based; set-up: dose 5 mg/kg; details: in vivo
[14] = Elimination half life in Sprague-Dawley rat at 5 mg/kg, iv by UHPLC-LC/MS analysis; type: ADME, organism-based; details: in vivo, read-out: beta t1/2 (converted)
[15] = AUC (0 to t) in Sprague-Dawley rat at 5 mg/kg, iv by UHPLC-LC/MS analysis; type: ADME, organism-based; set-up: dose 5 mg/kg; details: in vivo
[16] = Volume of distribution at steady state in Sprague-Dawley rat at 5 mg/kg, iv or po by UHPLC-LC/MS analysis; type: ADME, organism-based; details: in vivo, read-out: Vdss
[17] = Clearance in Sprague-Dawley rat at 5 mg/kg, […] by UHPLC-LC/MS analysis; type: ADME, organism-based; details: in vivo

Chain of PI3-kinase p110-delta/p85-alpha (P27986 whole entry): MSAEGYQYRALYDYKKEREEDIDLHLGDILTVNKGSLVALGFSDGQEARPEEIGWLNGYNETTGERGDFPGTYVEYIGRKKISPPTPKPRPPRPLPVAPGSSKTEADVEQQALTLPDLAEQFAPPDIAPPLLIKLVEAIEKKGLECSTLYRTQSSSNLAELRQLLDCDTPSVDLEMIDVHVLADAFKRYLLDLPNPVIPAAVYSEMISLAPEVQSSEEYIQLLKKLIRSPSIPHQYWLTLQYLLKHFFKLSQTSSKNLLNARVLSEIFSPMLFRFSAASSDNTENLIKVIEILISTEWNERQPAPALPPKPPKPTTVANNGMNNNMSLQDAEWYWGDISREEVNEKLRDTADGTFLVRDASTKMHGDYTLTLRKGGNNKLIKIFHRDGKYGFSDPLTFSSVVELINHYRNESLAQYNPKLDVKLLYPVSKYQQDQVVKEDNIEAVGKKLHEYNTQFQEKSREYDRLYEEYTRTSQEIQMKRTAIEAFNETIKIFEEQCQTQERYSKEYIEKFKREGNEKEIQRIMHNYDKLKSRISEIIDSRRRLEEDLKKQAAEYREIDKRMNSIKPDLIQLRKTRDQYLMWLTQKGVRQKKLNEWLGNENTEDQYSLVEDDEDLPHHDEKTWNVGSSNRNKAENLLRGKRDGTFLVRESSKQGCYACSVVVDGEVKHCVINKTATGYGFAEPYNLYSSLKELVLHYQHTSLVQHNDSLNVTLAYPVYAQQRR
Chain of PI3-kinase p110-delta/p85-alpha (O00329 whole entry): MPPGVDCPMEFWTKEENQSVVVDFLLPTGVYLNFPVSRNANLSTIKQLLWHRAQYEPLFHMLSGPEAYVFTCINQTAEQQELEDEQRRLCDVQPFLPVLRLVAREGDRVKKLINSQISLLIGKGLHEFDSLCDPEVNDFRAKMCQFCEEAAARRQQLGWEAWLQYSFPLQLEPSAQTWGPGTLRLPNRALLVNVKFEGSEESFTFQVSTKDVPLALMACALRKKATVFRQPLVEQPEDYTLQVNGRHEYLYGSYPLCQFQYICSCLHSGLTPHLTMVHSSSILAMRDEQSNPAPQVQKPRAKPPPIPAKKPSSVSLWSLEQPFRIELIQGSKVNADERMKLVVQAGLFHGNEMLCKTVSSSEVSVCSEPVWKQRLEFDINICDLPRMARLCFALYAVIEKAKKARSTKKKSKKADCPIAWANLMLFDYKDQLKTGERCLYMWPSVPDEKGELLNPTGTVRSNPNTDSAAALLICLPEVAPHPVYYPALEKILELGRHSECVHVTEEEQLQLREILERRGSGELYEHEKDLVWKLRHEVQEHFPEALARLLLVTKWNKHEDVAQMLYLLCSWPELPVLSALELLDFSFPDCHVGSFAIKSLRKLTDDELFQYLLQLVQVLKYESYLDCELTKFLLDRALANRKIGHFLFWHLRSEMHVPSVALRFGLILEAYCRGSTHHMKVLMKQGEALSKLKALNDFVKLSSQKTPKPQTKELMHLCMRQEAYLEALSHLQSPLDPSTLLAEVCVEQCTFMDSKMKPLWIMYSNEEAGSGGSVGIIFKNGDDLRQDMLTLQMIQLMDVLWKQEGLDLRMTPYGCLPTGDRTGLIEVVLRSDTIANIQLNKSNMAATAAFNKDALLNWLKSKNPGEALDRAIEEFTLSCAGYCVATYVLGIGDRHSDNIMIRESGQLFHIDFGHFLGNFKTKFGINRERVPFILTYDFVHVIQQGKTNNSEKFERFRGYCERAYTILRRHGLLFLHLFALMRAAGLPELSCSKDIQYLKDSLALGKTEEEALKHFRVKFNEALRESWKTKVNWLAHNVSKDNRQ
Chain of PI3-kinase p110-alpha/p85-alpha (P27986 whole entry): as the sequence (P27986 whole entry) above
Chain of PI3-kinase p110-alpha/p85-alpha (P42336 whole entry): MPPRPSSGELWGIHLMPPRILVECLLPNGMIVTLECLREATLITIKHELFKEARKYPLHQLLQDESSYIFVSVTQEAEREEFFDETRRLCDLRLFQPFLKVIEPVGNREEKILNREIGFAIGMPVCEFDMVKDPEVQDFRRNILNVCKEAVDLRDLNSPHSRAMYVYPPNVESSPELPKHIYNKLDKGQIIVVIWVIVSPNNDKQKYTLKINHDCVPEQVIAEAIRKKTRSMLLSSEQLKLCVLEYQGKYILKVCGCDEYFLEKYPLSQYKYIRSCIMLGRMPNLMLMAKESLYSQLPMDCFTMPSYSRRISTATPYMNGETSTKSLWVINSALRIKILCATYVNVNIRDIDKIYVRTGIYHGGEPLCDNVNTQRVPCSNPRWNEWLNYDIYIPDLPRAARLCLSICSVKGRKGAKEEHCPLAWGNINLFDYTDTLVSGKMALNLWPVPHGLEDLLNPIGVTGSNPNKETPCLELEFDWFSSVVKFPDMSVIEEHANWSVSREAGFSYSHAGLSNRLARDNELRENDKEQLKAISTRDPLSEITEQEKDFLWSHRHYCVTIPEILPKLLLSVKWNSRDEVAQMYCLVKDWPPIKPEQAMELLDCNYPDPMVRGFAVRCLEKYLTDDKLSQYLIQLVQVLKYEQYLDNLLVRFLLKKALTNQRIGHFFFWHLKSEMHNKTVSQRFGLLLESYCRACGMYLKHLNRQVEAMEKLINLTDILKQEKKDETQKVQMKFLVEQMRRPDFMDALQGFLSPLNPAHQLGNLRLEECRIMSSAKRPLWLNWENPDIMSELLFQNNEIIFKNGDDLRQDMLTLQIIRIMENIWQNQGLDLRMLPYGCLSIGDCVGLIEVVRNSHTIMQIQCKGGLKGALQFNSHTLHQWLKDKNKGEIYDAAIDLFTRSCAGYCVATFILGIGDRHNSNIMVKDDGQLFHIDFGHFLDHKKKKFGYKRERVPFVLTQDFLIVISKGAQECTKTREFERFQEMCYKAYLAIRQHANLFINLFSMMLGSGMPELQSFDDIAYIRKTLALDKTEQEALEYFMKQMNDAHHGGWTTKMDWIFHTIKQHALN
Chain of Phosphatidylinositol 4,5-bisphosphate 3-kinase catalytic subunit gamma isoform (P48736 whole entry, canonical isoform): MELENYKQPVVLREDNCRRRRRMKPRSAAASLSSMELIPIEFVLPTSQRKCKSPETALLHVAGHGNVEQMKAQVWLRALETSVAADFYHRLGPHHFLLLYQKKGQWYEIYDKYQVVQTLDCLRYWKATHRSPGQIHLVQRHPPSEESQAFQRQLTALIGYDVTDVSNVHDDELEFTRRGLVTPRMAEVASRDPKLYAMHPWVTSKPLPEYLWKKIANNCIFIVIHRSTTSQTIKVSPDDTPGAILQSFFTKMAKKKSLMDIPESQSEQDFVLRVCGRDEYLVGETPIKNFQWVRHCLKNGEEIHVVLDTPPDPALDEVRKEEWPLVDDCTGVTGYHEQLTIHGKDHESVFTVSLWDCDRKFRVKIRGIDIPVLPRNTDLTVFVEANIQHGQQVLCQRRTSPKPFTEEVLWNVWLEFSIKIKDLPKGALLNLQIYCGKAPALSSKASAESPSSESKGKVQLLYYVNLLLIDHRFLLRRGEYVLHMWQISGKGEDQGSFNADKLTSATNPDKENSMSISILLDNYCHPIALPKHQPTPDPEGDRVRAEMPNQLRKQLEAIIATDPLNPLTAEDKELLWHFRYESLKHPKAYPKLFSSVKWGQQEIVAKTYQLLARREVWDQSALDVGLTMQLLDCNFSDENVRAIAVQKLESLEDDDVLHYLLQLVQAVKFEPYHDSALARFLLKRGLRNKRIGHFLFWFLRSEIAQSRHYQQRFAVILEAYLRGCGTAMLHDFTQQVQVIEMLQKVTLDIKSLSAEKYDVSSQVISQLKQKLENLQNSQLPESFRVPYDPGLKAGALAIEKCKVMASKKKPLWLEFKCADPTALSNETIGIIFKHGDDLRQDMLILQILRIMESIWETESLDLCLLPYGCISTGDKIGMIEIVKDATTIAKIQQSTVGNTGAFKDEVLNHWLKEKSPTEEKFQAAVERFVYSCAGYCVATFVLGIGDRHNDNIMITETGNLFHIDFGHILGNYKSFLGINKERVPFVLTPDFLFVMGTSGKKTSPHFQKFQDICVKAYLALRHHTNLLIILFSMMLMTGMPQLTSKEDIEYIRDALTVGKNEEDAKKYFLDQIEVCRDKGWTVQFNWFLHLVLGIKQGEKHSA

SMILES	IC50 [1] [µM]	GI50 (SU-DHL-6 [2]) [µM]	further results
N#Cc1c(N)ncnc1N1CC2(CC2)C[C@H]1c1nc2cccc(F)c2c(=O)n1-c1ccccc1	0.015	0.867	
Cc1nc(N)nc(N2CC3(CC3)C[C@H]2c2nc3cccc(F)c3c(=O)n2-c2ccccc2)c1C#N	0.0094	1.04	
O=c1c2c(Cl)cccc2nc([C@@H]2CC3(CC3)CN2c2nc(Cl)nc3[nH]cnc23)n1-c1ccccc1	0.406		
N#Cc1c(N)ncnc1N1CC2(CC2)C[C@H]1c1nc2cccc(Cl)c2c(=O)n1-c1ccccc1	0.0037	3.42	
O=c1c2c(F)cccc2nc([C@@H]2CC3(CC3)CN2c2ncnc3[nH]cnc23)n1C1CCCCC1	0.444		
O=c1c2c(F)cccc2nc([C@@H]2CC3(CC3)CN2c2ncnc3[nH]cnc23)n1-c1ccccc1	0.043	0.813	
O=c1c2c(F)cccc2nc([C@@H]2CC3(CC3)CN2c2ncnc3[nH]cnc23)n1Cc1ccccc1	0.813		
N#Cc1c(N)nc(N)nc1N1CC2(CC2)C[C@H]1c1nc2cccc(F)c2c(=O)n1-c1ccccc1	0.0054	0.053	
Cc1cccc2nc([C@@H]3CC4(CC4)CN3c3ncnc4[nH]cnc34)n(-c3ccccc3)c(=O)c12	0.016	0.107	
O=c1c2cc(F)ccc2nc([C@@H]2CC3(CC3)CN2c2ncnc3[nH]cnc23)n1-c1ccccc1	0.048	0.937	
O=c1c2c(Cl)cccc2nc([C@@H]2CC3(CC3)CN2c2nc(F)nc3[nH]cnc23)n1-c1ccccc1	0.038	2.81	
Cc1nc(N)nc(N2CC3(CC3)C[C@H]2c2nc3cccc(Cl)c3c(=O)n2-c2ccccc2)c1C#N	0.0096	0.716	
O=c1c2c(F)cccc2nc([C@@H]2CC3(CC3)CN2c2ncnc3[nH]cnc23)n1C1CCCC1	0.396		
N#Cc1c(N)ncnc1N1CC2(CC2)C[C@H]1c1nc2ccc(F)cc2c(=O)n1-c1ccccc1	0.0096	0.945	
O=c1c2c(Cl)cccc2nc([C@@H]2CC3(CC3)CN2c2ncnc3[nH]cnc23)n1-c1ccccc1	0.013	0.601	IC50 [3]: 0.113 µM; IC50 [4]: 2.64 µM; Ratio IC50 (Homo sapiens [5]): > 385; Ratio IC50 (Homo sapiens [6]): 9; IC50 [7]: > 5 µM; Ratio IC50 (Homo sapiens [8]): 203
CC[C@H](Nc1ncnc2[nH]cnc12)c1nc2cccc(F)c2c(=O)n1-c1ccccc1 [IDELALISIB]		0.034	
N#Cc1c(N)nc(N)nc1N1CC2(CC2)C[C@H]1c1nc2cccc(Cl)c2c(=O)n1-c1ccccc1	0.001	0.033	inhibition (SU-DHL-6 [9]): Dose-dependent effect; IC50 [3]: 0.0043 µM; inhibition (SU-DHL-6 [10]): Dose-dependent effect; half-life [11]: 14.3 h; IC50 [4]: 0.174 µM; bioavailability [12]: 87.5%; Ratio IC50 (Homo sapiens [5]): 221; AUC(0-t) [13]: 4.88 µg·h/mL; Ratio IC50 (Homo sapiens [6]): 4; half-life [14]: 3 h; IC50 [7]: 0.221 µM; Ratio IC50 (Homo sapiens [8]): 174; AUC(0-t) [15]: 5.58 µg·h/mL; Vd [16]: 3.9 L/kg; CL/F [17]: 0.9 L/h/kg
